The results in this text go back to patent publication US4174391A, “Spiramycin esters” (May & Baker Limited, priority 1976, dated 1979).

A short description of data set [1]: Mouse oral toxicity. As to conditions: in vivo. The method, then:
Mice were each treated orally with one of the compounds of general formula I, and they were observed during the next 3 days.
The LD50 figures obtained (doses lethal to 50% of mice treated) are shown in Table II, expressed in mg/kg animal body weight. None of the mice died during the experiment even at doses of 1000 mg/kg animal body weight.

The test system of data set [2] is Staphylococcus aureus (Oxford). The experiment in a line: In vitro minimum inhibitory concentration, S. aureus (Oxford) (Test 3). As to conditions: tryptone soya broth, approximately 10^5 organisms per tube, 37° C.; for MIC: Staphylococcus aureus. Type of data set: cell-based. The protocol: (§1) For each test compound, a range of concentrations in tryptone soya broth was prepared. Each test-tube containing a different concentration of the test compound within the range was inoculated with the test organism selected from Staphylococcus aureus (Oxford) or Escherichia coli B (Ennis) (approximately 10^5 organisms per tube) and after incubation at 37° C., the lowest concentration of test compound within the range required to prevent the growth of the test organism was recorded as the minimum inhibitory concentration for that compound and that organism.

In data set [3] the test system is Staphylococcus aureus Smith. The experiment in a line: Mouse treated orally, Staphylococcus aureus Smith infection (Test 1). As to conditions: 168 h, oral, dosed 1, 4, 24, 30 and 48 hours after infection, observed seven days, test compound, read-out: In vivo CD50 (oral). The method, then: Mice were injected intra-peritoneally with Staphylococcus aureus Smith suspended in mucin (0.5 ml). This infection represented approximately 100 times the minimum dose calculated to kill 100% of mice. The mice were each treated orally with 16, 31, 62.5, 125 or 250 mg/kg animal body weight doses of a compound of general formula I. Each mouse was dosed 1, 4, 24, 30 and 48 hours after infection, with the selected dose.
(§2) The term "CD50" means the dose calculated to cure 50% of the mice treated.

Data set [4] deals with Escherichia coli B (Ennis). The data set is described as follows: In vitro minimum inhibitory concentration, E. coli B (Ennis) (Test 3). Type of data set: cell-based. As to conditions: tryptone soya broth, approximately 10^5 organisms per tube, 37° C.; for MIC: Escherichia coli. The protocol: as §1
Data set [5] deals with Staphylococcus aureus Smith. The data set is described as follows: Mouse treated subcutaneously, Staphylococcus aureus Smith infection (Test 2). As to conditions: sc, 168 h, read-out: CD50 (subcutaneous). Format: in vivo. The protocol: as §2
Mice were infected intra-peritoneally with Staphylococcus aureus Smith [approximately 100 times the minimum dose lethal to 100% of mice infected] suspended in mucin (0.5 ml).
The results obtained from a compound of general formula I were compared with the results obtained from spiramycin I used as a standard compound.

Converted amounts (≈) assume the structure as drawn. Counter-ions that a name gives are not always drawn.

Usually LD50 stands for the dose expected to kill half of the subjects tested. The low end stands for greater toxicity, the high end for lower toxicity. The term MIC denotes the least concentration at which growth counts as inhibited. Low values mean a more susceptible organism, high ones a less susceptible organism.

In the case of `CCOC(=O)CCC(=O)OC1C(OC2C(CC=O)CC(C)C(OC3CCC(N(C)C)C(C)O3)/C=C/C=C/CC(C)OC(=O)CC(O)C2OC)OC(C)C(OC2CC(C)(O)C(O)C(C)O2)C1N(C)C` (stereo not drawn) [A, 2'-ethyl succinate of spiramycin I], in data set [1], the LD50 at 72 h is over 1000 mg/kg. In addition, the MIC in data set [2] was 1.25 µg/mL; in data set [4], 62 µg/mL. Moreover, the ED50 was determined as 88 mg/kg in data set [3]; 17.5 mg/kg in data set [5] (mouse, subcutaneous, 1, 4, 24, 30 and 48 hours after infection, observed seven days).
The compound `CCOC(=O)CCCC(=O)OC1C(OC2C(CC=O)CC(C)C(OC3CCC(N(C)C)C(C)O3)/C=C/C=C/CC(C)OC(=O)CC(O)C2OC)OC(C)C(OC2CC(C)(O)C(O)C(C)O2)C1N(C)C` (stereo not drawn) [B, 2'-ethyl glutarate of spiramycin I] yielded an LD50 at 72 h in data set [1] of over 1000 mg/kg. Further, the figures for the minimal inhibitory concentration (MIC) in data set [2] and in data set [4] were 1.25 µg/mL (≈ 1.27 µM) and 62 µg/mL (≈ 62.9 µM), respectively. The ED50 in data set [3] was 135 mg/kg.
As for `COC(=O)CCC(=O)OC1C(OC2C(CC=O)CC(C)C(OC3CCC(N(C)C)C(C)O3)/C=C/C=C/CC(C)OC(=O)CC(O)C2OC)OC(C)C(OC2CC(C)(O)C(O)C(C)O2)C1N(C)C` (stereo not drawn) [C, 2'-methyl succinate of spiramycin I], the MIC in data set [2] was determined as 2.5 µg/mL; in data set [4], 250 µg/mL. For the same compound, the ED50 in data set [3] was found to be 62 mg/kg.
For `COC(=O)CC(C)C(=O)OC1C(OC2C(CC=O)CC(C)C(OC3CCC(N(C)C)C(C)O3)/C=C/C=C/CC(C)OC(=O)CC(O)C2OC)OC(C)C(OC2CC(C)(O)C(O)C(C)O2)C1N(C)C` (stereo not drawn) [Compound L, 2'-methyl (RS)-(3-methyl)succinate of spiramycin I] the same measures were 2.5 µg/mL (≈ 2.57 µM), 250 µg/mL (≈ 257 µM) and 58 mg/kg.
Turning to `CCCOC(=O)CCC(=O)OC1C(OC2C(CC=O)CC(C)C(OC3CCC(N(C)C)C(C)O3)/C=C/C=C/CC(C)OC(=O)CC(O)C2OC)OC(C)C(OC2CC(C)(O)C(O)C(C)O2)C1N(C)C` (stereo not drawn) [D, 2'-propyl succinate of spiramycin I], the MIC in data set [2] came out at 2.5 µg/mL; in data set [4], 250 µg/mL. The ED50 in data set [3] is 90 mg/kg.
In the case of `COC(=O)CCCC(=O)OC1C(OC2C(CC=O)CC(C)C(OC3CCC(N(C)C)C(C)O3)/C=C/C=C/CC(C)OC(=O)CC(O)C2OC)OC(C)C(OC2CC(C)(O)C(O)C(C)O2)C1N(C)C` (stereo not drawn) [E, 2'-methyl glutarate of spiramycin I], the MIC turned out to be 2.5 µg/mL (≈ 2.57 µM) in data set [2] and 125 µg/mL (≈ 129 µM) in data set [4]. Besides, the ED50 in data set [3] is 125 mg/kg.
For `COC(=O)/C=C/C(=O)OC1C(OC2C(CC=O)CC(C)C(OC3CCC(N(C)C)C(C)O3)/C=C/C=C/CC(C)OC(=O)CC(O)C2OC)OC(C)C(OC2CC(C)(O)C(O)C(C)O2)C1N(C)C` (stereo not drawn) [F, 2'-methyl fumarate of spiramycin I] the same measures were 2.5 µg/mL, 250 µg/mL and 125 mg/kg.
For `COC1C(O)CC(=O)OC(C)C/C=C/C=C/C(OC2CCC(N(C)C)C(C)O2)C(C)CC(CC=O)C1OC1OC(C)C(OC2CC(C)(O)C(O)C(C)O2)C(N(C)C)C1OC(=O)CCC(=O)SC` (stereo not drawn) [G, 2'-S-methyl thiosuccinate of spiramycin I] the same measures were 2.5 µg/mL (≈ 2.57 µM), 500 µg/mL (≈ 514 µM) and 114 mg/kg.
For `COC1C(O)CC(=O)OC(C)C/C=C/C=C/C(OC2CCC(N(C)C)C(C)O2)C(C)CC(CC=O)C1OC1OC(C)C(OC2CC(C)(O)C(O)C(C)O2)C(N(C)C)C1OC(=O)CCC(=O)OC1CCCCC1` (stereo not drawn) [H, 2'-cyclohexyl succinate of spiramycin I] the same measures were 2.5 µg/mL, 250 µg/mL and 67 mg/kg.
Regarding `CCOC(=O)CC(=O)OC1C(OC2C(CC=O)CC(C)C(OC3CCC(N(C)C)C(C)O3)/C=C/C=C/CC(C)OC(=O)CC(O)C2OC)OC(C)C(OC2CC(C)(O)C(O)C(C)O2)C1N(C)C` (stereo not drawn) [J, 2'-ethyl malonate of spiramycin I], the MIC is 5 µg/mL (≈ 5.22 µM) in data set [2] and 250 µg/mL (≈ 261 µM) in data set [4]. In addition, the ED50 in data set [3] is 120 mg/kg.
For `COC1C(O)CC(=O)OC(C)C/C=C/C=C/C(OC2CCC(N(C)C)C(C)O2)C(C)CC(CC=O)C1OC1OC(C)C(OC2CC(C)(O)C(O)C(C)O2)C(N(C)C)C1OC(=O)CCC(=O)Oc1ccccc1` (stereo not drawn) [K, 2'-phenyl succinate of spiramycin I] the same measures were 2.5 µg/mL, 250 µg/mL and 76 mg/kg.
On the same counts, the results for `COC1C(O)CC(=O)OC(C)C/C=C/C=C/C(OC2CCC(N(C)C)C(C)O2)C(C)CC(CC=O)C1OC1OC(C)C(OC2CC(C)(O)C(O)C(C)O2)C(N(C)C)C1OC(=O)CCC(=O)OCCc1ccccc1` (stereo not drawn) [M, 2'-(2-phenylethyl) succinate of spiramycin I] are 2.5 µg/mL, 250 µg/mL and 64 mg/kg.
In the case of `COC1C(O)CC(=O)OC(C)C/C=C/C=C/C(OC2CCC(N(C)C)C(C)O2)C(C)CC(CC=O)C1OC1OC(C)C(OC2CC(C)(O)C(O)C(C)O2)C(N(C)C)C1OC(=O)CCC(=O)OC(C)(C)C` (stereo not drawn) [N, 2'-tertiary-butyl succinate of spiramycin I], the values for the MIC in data set [2] and in data set [4] were 2.5 µg/mL and 125 µg/mL, respectively. Further, in data set [3], the ED50 is 130 mg/kg.
For `COC1C(O)CC(=O)OC(C)C/C=C/C=C/C(OC2CCC(N(C)C)C(C)O2)C(C)CC(CC=O)C1OC1OC(C)C(OC2CC(C)(O)C(O)C(C)O2)C(N(C)C)C1OC(=O)CCC(=O)OC(C)C` (stereo not drawn) [O, 2'-isopropyl succinate of spiramycin I], the MIC in data set [2] worked out at 1.25 µg/mL; in data set [4] it was 125 µg/mL. Besides, the ED50 in data set [3] is 96 mg/kg.
Regarding `COC1C(O)CC(=O)OC(C)C/C=C/C=C/C(OC2CCC(N(C)C)C(C)O2)C(C)CC(CC=O)C1OC1OC(C)C(OC2CC(C)(O)C(O)C(C)O2)C(N(C)C)C1O` (stereo not drawn) [Spiramycin I, spiramycin I, reference compound], the ED50 in data set [5] was found to be 5.8 mg/kg.
On to Spiramycin [reference compound], for which the “In vitro minimum inhibitory concentration, S. aureus (Oxford)” value in data set [2] fell in the range of 0.62 to 2.5 µg/mL. Besides, the “In vitro minimum inhibitory concentration, Escherichia coli B (Ennis)” value in data set [4] lay within 62 to 250 µg/mL.
